The subject of assay [1] is CRM1-mediated export of NFAT-GFP. In words: NFAT-GFP nuclear export after ionomycin washout in HEK 293 cells. In kind it is cell-based, human. The conditions noted are these: HEK 293, importazole 40 μM, leptomycin B 10 ng/ml, 1 hour after ionomycin washout.
Experimental: For all import and export experiments, HEK 293 cells stably expressing NFAT-GFP were grown on glass coverslips to approximately 50% confluency prior to drug treatment. In all cases, importazole was used at 40 μM and leptomycin B was used at 10 ng/ml. For controls, DMSO was used at a concentration of 0.4%. Ionomycin was added at 1.25 μM. Importazole and leptomycin B treatments were all for 1 hour. In all experiments cells were fixed with 4% formaldehyde prior to fluorescence microscopy. DNA was visualized with 1 μg/ml Hoechst dye.
For assay [2], the system named is spindle assembly around sperm chromosomes. Nature of the assay: spindle assembly in metaphase-arrested Xenopus egg extracts. The arrangement: species or system Xenopus laevis. The conditions noted are these: 100 μM importazole. The text has this: In order to determine whether importazole also disrupts mitosis, importazole was first tested in metaphase-arrested Xenopus egg extracts, which rely heavily on a RanGTP gradient for spindle assembly around sperm chromosomes. […] The effect was similar to that of adding a truncated importin-β (amino acids 71-876), a version that no longer binds to RanGTP and therefore sequesters its cargoes. […] Thus, importazole caused dramatic effects on spindle assembly consistent with the known role of the importin-β/RanGTP pathway in the Xenopus egg extract system, and is not a general microtubule inhibitor.
Xenopus laevis egg extracts were prepared as described by Hannak et al. (2006) Nat. Protoc. 1:2305-2314. For in vitro spindle assembly, Xenopus laevis sperm DNA was added to egg extracts supplemented with rhodamine-labeled tubulin. Asters were formed by addition of 5% DMSO. DNA was stained with Hoechst dye. The formation of microtubule-based structures was assessed using epifluorescence microscopy after a 30-minute room temperature incubation. In vitro microtubule polymerization and pelleting assays were performed by incubating 25 μM bovine tubulin, 1 mM GTP, and 5% DMSO in BRB80 buffer (80 mM PIPES, 1 mM MgCl2, 1 mM EGTA, pH 6.8) at 37° C. for 30 minutes. Polymerized microtubules were pelleted through a sucrose cushion, resuspended, and analyzed by SDS PAGE.

`CCC(=C/[C@H](C)C/C=C/C(C)=C/[C@@H](C)C(=O)[C@@H](C)[C@H](O)[C@@H](C)C/C(C)=C/C(=O)O)/C=C/[C@@H]1OC(=O)C=C[C@@H]1C` [leptomycin B, reference compound]: in assay [1], the “CRM1-mediated export of NFAT-GFP” value is reported as “blocked”.

As to “truncated importin-β (amino acids 71-876): truncated importin-β that no longer binds to RanGTP and therefore sequesters its cargoes”, the “sperm nuclei at which normal bipolar microtubule structures were prevented from forming” value in assay [2] is “similar”.

(Values after patent US20130225611A1, “Compositions and Methods for Reducing Cancer Cell Proliferation and Modulating Importin-Beta Function” (THE REGENTS OF THE UNIVERSITY OF CALIFORNIA, priority 2011, published 2013).)
